Source: patent US11198713B2, “Agents modulating beta-catenin functions and methods thereof” (FOG PHARMACEUTICALS, INC., priority 2017, dated 2021)
Numbered stars: 1 amine (or outer) side, 2 acyl side, 3 side chain; on linkers, the order of the positions; unused ones are H or OH. Square brackets hold non-standard residues; d marks the D form. Peptide text beside a SMILES is read from it. X16 = C=CCOC(=O)N1CC[C@@](N[*:1])(C(=O)[*:2])C1; R8 = C=CCCCCCC[C@@](C)(N)C(=O)O

These compounds were tested against T1, full-length beta-catenin (Axin site) (Homo sapiens, UniProt P35222) (assay: Competition fluorescence polarization assay (Axin site probe)). Conditions: competition fluorescence polarization, Table 2; read-out: in vitro FP EC50.
T1 construct: 15 nM full-length beta-catenin, 20 nM FITC labeled peptide in buffer
T1 sequence (P35222 1-781): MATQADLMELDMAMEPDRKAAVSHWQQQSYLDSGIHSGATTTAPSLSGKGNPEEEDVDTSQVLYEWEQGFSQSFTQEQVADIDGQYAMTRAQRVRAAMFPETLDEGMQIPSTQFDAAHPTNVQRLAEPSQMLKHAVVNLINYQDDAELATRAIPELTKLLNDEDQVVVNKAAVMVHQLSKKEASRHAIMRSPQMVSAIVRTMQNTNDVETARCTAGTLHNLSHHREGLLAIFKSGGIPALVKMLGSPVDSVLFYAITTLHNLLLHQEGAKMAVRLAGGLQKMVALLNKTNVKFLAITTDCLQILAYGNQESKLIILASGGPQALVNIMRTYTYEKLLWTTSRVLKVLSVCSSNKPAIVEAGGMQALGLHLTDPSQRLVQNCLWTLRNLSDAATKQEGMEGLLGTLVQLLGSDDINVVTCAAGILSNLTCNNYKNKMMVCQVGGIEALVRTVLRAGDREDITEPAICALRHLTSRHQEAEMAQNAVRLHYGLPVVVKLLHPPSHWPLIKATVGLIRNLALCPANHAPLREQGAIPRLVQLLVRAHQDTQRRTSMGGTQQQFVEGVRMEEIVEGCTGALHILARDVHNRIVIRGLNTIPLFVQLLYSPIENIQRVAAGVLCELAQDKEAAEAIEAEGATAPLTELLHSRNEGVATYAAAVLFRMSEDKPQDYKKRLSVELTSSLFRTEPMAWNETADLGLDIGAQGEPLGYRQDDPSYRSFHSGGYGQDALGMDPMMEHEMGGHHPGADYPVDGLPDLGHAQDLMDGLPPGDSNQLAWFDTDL
Format: binding
Procedure, shortened: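 Competition FP: 15 nM full-length β-catenin pre-incubated 5 min with 20 nM FITC-labelled stapled Axin-site peptide, then titrated peptide added (3-fold series from 5 μM) for 15 min in the dark. Buffer 50 mM Tris pH 8.0, 250 mM NaCl, 2% glycerol, 0.5 mM EDTA; duplicate reads.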
For `CC[C@H](C)[C@@H]1NC(=O)[C@H](Cc2ccccn2)NC(=O)[C@H](C)NC(=O)[C@H](CC(=O)O)NC(=O)[C@H](CC(C)C)NC(=O)[C@H]([C@@H](C)CC)NC(=O)[C@](C)(NC(=O)[C@H](C)NC(C)=O)CCCCCCC=CCOC(=O)N2CC[C@@](C(=O)N[C@H](C(=O)N[C@H](C(=O)N[C@@H](Cc3c[nH]c4ccccc34)C(N)=O)C(C)C)[C@@H](C)CC)(C2)NC1=O` (single isomer, unassigned) [FP0556c Isomer 1, Ac-A-R8-I-L-D-A-2pyr-I-MB-I-V-W-NH2], the EC50 was greater than 5000 nM. For `CC[C@H](C)[C@@H]1NC(=O)[C@H](Cc2ccccn2)NC(=O)[C@H](C)NC(=O)[C@H](CC(=O)O)NC(=O)[C@H](CC(C)C)NC(=O)[C@H]([C@@H](C)CC)NC(=O)[C@](C)(NC(=O)[C@H](C)NC(C)=O)CCCCCCC=CCOC(=O)N2CC[C@@](C(=O)NC(C)(C)C(=O)N[C@H](C(=O)N[C@@H](Cc3c[nH]c4ccccc34)C(N)=O)C(C)C)(C2)NC1=O` (single isomer, unassigned) [FP0570c Isomer 2, Ac-A-R8-I-L-D-A-2pyr-I-MB-Aib-V-W-NH2], the EC50 was greater than 5000 nM. In the case of `CC[C@H](C)[C@@H]1NC(=O)[C@@](C)(NC(=O)[C@H](CCC(N)=O)NC(=O)[C@@H]2CCCN2C(C)=O)CN(C)C(=O)OCC=CCCC[C@@](C)(C(=O)N[C@@H](Cc2c[nH]cn2)C(=O)N[C@H](C(=O)N[C@@H](CCCNC(=N)N)C(=O)N[C@@H](CCCNC(=N)N)C(=O)N[C@H](C(=O)N[C@@H](Cc2c[nH]c3ccccc23)C(=O)N[C@@H](CCCNC(=N)N)C(N)=O)C(C)C)C(C)C)NC(=O)[C@H](CC(=O)O)NC(=O)[C@H](CC(C)C)NC1=O` (single isomer, unassigned) [FP0778c, Ac-P-Q-MD-I-L-D-S5-H-V-R-R-V-W-R-NH2], the EC50 is reported as 500 to 5000 nM. With `CC[C@H](C)[C@@H]1NC(=O)[C@H](Cc2c[nH]cn2)NC(=O)[C@H](C)NC(=O)[C@H](CC(=O)O)NC(=O)[C@H](CC(C)C)NC(=O)[C@H](C)NC(=O)[C@](C)(NC(=O)[C@H](C)NC(C)=O)CCCCCCC=CCOC(=O)N2CC[C@@](C(=O)N[C@@H](CCCNC(=N)N)C(=O)N[C@H](C(=O)N[C@@H](Cc3c[nH]c4ccccc34)C(N)=O)C(C)C)(C2)NC1=O` [FP0405c, Ac-A-R8-A-L-D-A-H-I-MB-R-V-W-NH2] the EC50 was 500 to 5000 nM. `CC[C@H](C)[C@@H]1NC(=O)[C@@]2(NC(=O)[C@H](CCC(N)=O)NC(=O)[C@@H]3CCCN3C(C)=O)CCN(C2)C(=O)OCC=CCCCC[C@](C)(C(=O)N[C@@H](Cc2c[nH]cn2)C(=O)N[C@H](C(=O)N[C@@H](CCCNC(=N)N)C(=O)N[C@@H](CCCNC(=N)N)C(=O)N[C@H](C(=O)N[C@@H](Cc2c[nH]c3ccccc23)C(=O)N[C@@H](CCCNC(=N)N)C(N)=O)C(C)C)C(C)C)NC(=O)[C@H](CC(=O)O)NC(=O)[C@H](CC(C)C)NC1=O` (single isomer, unassigned) [FP0745c, Ac-P-Q-MC-I-L-D-R6-H-V-R-R-V-W-R-NH2] gave an EC50 of 100 to 500 nM. With `CC[C@H](C)[C@@H]1NC(=O)[C@H](Cc2ccccn2)NC(=O)[C@H](C)NC(=O)[C@H](CC(=O)O)NC(=O)[C@H](CC(C)C)NC(=O)[C@H]([C@@H](C)CC)NC(=O)[C@](C)(NC(=O)[C@H](C)NC(C)=O)CCCCCCC=CCOC(=O)N2CC[C@@](C(=O)N[C@@H](Cc3ccc(C)cc3)C(=O)N[C@H](C(=O)N[C@@H](Cc3c[nH]c4ccccc34)C(N)=O)C(C)C)(C2)NC1=O` (single isomer, unassigned) [FP0578c Isomer 1, Ac-A-R8-I-L-D-A-2pyr-I-MB-4MeF-V-W-NH2] the EC50 was greater than 5000 nM. `CC[C@H](C)[C@@H]1NC(=O)[C@](C)(NC(=O)[C@H](C)NC(=O)[C@@H]2CCCN2C(C)=O)CCCC=CCCCCCC[C@@](C)(C(=O)N[C@@H](CCCNC(=N)N)C(=O)N[C@H](C(=O)N[C@@H](Cc2c[nH]c3ccccc23)C(N)=O)C(C)C)NC(=O)[C@H](C(C)C)NC(=O)[C@H](Cc2c[nH]cn2)NC(=O)[C@H](C)NC(=O)[C@H](CC(=O)O)NC(=O)[C@H](CC(C)C)NC1=O` (single isomer, unassigned) [FP0212s Isomer 2, Ac-P-A-R5-I-L-D-A-H-V-S8-R-V-W-NH2] was tested, and the EC50 was 100 to 500 nM. `C=CCCCCCC[C@@](C)(NC(=O)[C@H](C)NC(C)=O)C(=O)N[C@H](C(=O)N[C@@H](CC(C)C)C(=O)N[C@@H](CC(=O)O)C(=O)N[C@@H](C)C(=O)N[C@@H](Cc1c[nH]cn1)C(=O)N[C@H](C(=O)N[C@@]1(C(=O)N[C@@H](CCCNC(=N)N)C(=O)N[C@H](C(=O)N[C@@H](Cc2c[nH]c3ccccc23)C(N)=O)C(C)C)CCN(C(=O)OCC=C)C1)[C@@H](C)CC)[C@@H](C)CC` [FP0217u, Ac-A-R8-I-L-D-A-H-I-MB-R-V-W-NH2] (Ac-A[R8]ILDAHI[X16]RVW-NH2) showed an EC50 of less than 100 nM. `CC[C@H](C)[C@@H]1NC(=O)[C@H](Cc2ccccn2)NC(=O)[C@H](C)NC(=O)[C@H](CC(=O)O)NC(=O)[C@H](CC(C)C)NC(=O)[C@H]([C@@H](C)CC)NC(=O)[C@](C)(NC(=O)[C@H](C)NC(C)=O)CCCCCCC=CCOC(=O)N2CC[C@@](C(=O)N[C@@H](Cc3cccnc3)C(=O)N[C@H](C(=O)N[C@@H](Cc3c[nH]c4ccccc34)C(N)=O)C(C)C)(C2)NC1=O` (single isomer, unassigned) [FP0573c Isomer 2, Ac-A-R8-I-L-D-A-2pyr-I-MB-3pyr-V-W-NH2] gave an EC50 greater than 5000 nM. Compound `CC[C@H](C)[C@@H]1NC(=O)[C@H](Cc2ccccn2)NC(=O)[C@H](C)NC(=O)[C@H](CC(=O)O)NC(=O)[C@H](CC(C)C)NC(=O)[C@H]([C@@H](C)CC)NC(=O)[C@](C)(NC(=O)[C@H](C)NC(C)=O)CCCCCCC=CCOC(=O)N2CC[C@@](C(=O)N[C@@H](C)C(=O)N[C@H](C(=O)N[C@@H](Cc3c[nH]c4ccccc34)C(N)=O)C(C)C)(C2)NC1=O` (single isomer, unassigned) [FP0554c Isomer 2, Ac-A-R8-I-L-D-A-2pyr-I-MB-A-V-W-NH2] has an EC50 greater than 5000 nM. In the case of `CC[C@H](C)[C@@H]1NC(=O)[C@H](C)NC(=O)[C@H](C)NC(=O)[C@H](CC(=O)O)NC(=O)[C@H](CC(C)C)NC(=O)[C@H]([C@@H](C)CC)NC(=O)[C@](C)(NC(=O)[C@H](C)NC(C)=O)CCCCCCC=CCOC(=O)N2CC[C@@](C(=O)N[C@@H](CCCNC(=N)N)C(=O)N[C@H](C(=O)N[C@@H](Cc3c[nH]c4ccccc34)C(N)=O)C(C)C)(C2)NC1=O` [FP0408c, Ac-A-R8-I-L-D-A-A-I-MB-R-V-W-NH2], the EC50 is reported as greater than 5000 nM.

Same assay, conditions: competition with FITC labeled Axin-site probe, 15 nM full-length beta-catenin; read-out: FP EC50
Work on `CC[C@H](C)[C@@H]1NC(=O)[C@@](C)(NC(=O)[C@H](CCC(N)=O)NC(=O)[C@@H]2CCCN2C(C)=O)CCN(C)C(=O)OCC=CCCC[C@@](C)(C(=O)N[C@@H](Cc2c[nH]cn2)C(=O)N[C@H](C(=O)N[C@@H](CCCNC(=N)N)C(=O)N[C@@H](CCCNC(=N)N)C(=O)N[C@H](C(=O)N[C@@H](Cc2c[nH]c3ccccc23)C(=O)N[C@@H](CCCNC(=N)N)C(N)=O)C(C)C)C(C)C)NC(=O)[C@H](CC(=O)O)NC(=O)[C@H](CC(C)C)NC1=O` (single isomer, unassigned) [FP-0779c, Ac-P-Q-SdN-I-L-D-S5-H-V-R-R-V-W-R-NH2] yielded an EC50 of 1300 nM. Compound `CC[C@H](C)[C@@H]1NC(=O)[C@@](C)(NC(=O)[C@H](CCC(N)=O)NC(=O)[C@@H]2CCCN2C(C)=O)CCCCCC=CCOC(=O)N2CC(C(=O)N[C@@H](Cc3c[nH]cn3)C(=O)N[C@H](C(=O)N[C@@H](CCCNC(=N)N)C(=O)N[C@@H](CCCNC(=N)N)C(=O)N[C@H](C(=O)N[C@@H](Cc3c[nH]c4ccccc34)C(=O)N[C@@H](CCCNC(=N)N)C(N)=O)C(C)C)C(C)C)(C2)NC(=O)[C@H](CC(=O)O)NC(=O)[C@H](CC(C)C)NC1=O` (single isomer, unassigned) [FP-0738c, Ac-P-Q-S7-I-L-D-Az-H-V-R-R-V-W-R-NH2] has an EC50 of 1800 nM.
